The text below walks through data of ChEMBL document CHEMBL1201862, “PubChem BioAssay data set” (2004).

Broadly, the AC50 is the concentration giving half of the maximal activity seen. What is called EC50 is the midpoint of the concentration-response curve. For orientation: CC50 means the concentration at which the toxic effect on the cells reaches its halfway point.

For series [1], the target named is T1, Hepatocyte nuclear factor 4-alpha (Homo sapiens, UniProt P41235).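 Note: biochemical luminescence-based dose-response counterscreen measuring inhibition of HNF4 dimerization, run alongside a screen for blockers of ABHD5–perilipin-5 interaction; split luciferase complementation of HNF4 fusion proteins in cell lysate measuring dimerization.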
T1 sequence (P41235 whole entry): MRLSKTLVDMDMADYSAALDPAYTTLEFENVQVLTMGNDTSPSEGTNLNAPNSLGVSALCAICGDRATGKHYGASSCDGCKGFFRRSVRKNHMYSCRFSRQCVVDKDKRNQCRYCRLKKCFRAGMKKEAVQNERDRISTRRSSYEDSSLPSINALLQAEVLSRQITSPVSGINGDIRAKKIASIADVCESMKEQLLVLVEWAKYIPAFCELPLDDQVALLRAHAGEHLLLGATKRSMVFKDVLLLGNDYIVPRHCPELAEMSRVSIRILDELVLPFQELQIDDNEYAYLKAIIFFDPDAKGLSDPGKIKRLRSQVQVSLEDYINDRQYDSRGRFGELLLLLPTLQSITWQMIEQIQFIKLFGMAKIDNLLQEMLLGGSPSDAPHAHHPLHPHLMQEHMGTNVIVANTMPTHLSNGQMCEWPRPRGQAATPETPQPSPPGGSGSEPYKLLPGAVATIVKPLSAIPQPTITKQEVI
The series is classed as functional, cell-based.

The next series deals with Paired box protein Pax-8 (Homo sapiens, UniProt Q06710). The series is described as follows: inhibitors of PAX8-driven TPO luciferase reporter, dose response, RMG-I cells, cherry-pick (AID 687027).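 Note: luciferase reporter driven by Pax8 target thyroperoxidase promoter measured by SteadyGlo luminescence.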 The series is classed as functional, cell-based.
Sequence of Paired box protein Pax-8 (Q06710 whole entry): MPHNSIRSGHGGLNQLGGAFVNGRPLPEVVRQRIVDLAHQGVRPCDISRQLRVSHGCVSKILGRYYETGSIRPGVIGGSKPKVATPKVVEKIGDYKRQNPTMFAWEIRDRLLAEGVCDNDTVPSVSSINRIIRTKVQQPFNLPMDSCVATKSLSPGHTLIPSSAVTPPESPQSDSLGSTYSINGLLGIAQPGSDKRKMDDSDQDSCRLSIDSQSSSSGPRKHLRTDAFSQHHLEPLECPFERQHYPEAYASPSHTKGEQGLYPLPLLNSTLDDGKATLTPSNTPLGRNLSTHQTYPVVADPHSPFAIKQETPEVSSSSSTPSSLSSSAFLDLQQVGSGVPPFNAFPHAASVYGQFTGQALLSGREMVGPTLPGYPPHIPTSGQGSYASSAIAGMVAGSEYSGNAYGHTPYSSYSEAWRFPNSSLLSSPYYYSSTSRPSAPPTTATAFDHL
A short description of series [2]: inhibitors of SNCA 5'UTR-driven reporter translation, confirmation, H4 neuroglioma cells, luminescence (AID 1988). The format is functional, cell-based.
The subject of series [3] is BJ. The series is described as follows: cytotoxicity toward BJ-TERT-LT-ST fibroblasts, dose response, cell-based, RAS-independent, luminescence (AID 1935).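 Note: BJ fibroblasts immortalized with TERT plus LT and ST oncogenes.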 The series is classed as functional. The following applies: Homo sapiens.
The next series has as its target Cytochrome P450 3A4 (Homo sapiens, UniProt P08684).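 Note: CYP3A4 tested as one member of a cytochrome P450 panel screen.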
Series [4] concerns BJ. The experiment in a line: cytotoxicity toward BJ-TERT fibroblasts, dose response, cell-based, RAS-independent, luminescence (AID 1933). The format is functional. The following applies: Homo sapiens.
Series [5] can be described thus: Luminescence Cell-Based Dose Response HTS to Identify Inhibitors of 5'UTR Stem-Loop Driven Prion Protein mRNA Translation in H4 Neuroglioblastoma Cells. [Related pubchem assays: 1827 (Project Summary), 1813 (Primary HTS)]. The format is functional.
Series [6] deals with BJ. The experiment in a line: cytotoxicity toward Ras-transformed BJeLR fibroblasts, dose response, cell-based, alamar blue fluorescence, cherrypicked samples (AID 2631).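 Note: confirmatory dose-response assay in RAS-dependent BJ fibroblasts engineered with TERT, LT and ST, with cytotoxicity read by fluorescence.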 The following applies: Homo sapiens. The series is classed as functional. A general note: Alamar Blue is a resazurin reagent that responds to reducing activity.
The target of series [7] is Peroxisome proliferator-activated receptor gamma/Nuclear receptor coactivator 2 (Homo sapiens, UniProt P37231). The series is classed as functional.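 Note: agonist potency for raising coactivator recruitment to the receptor.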
For series [8], the system named is BJ. The experiment in a line: cells. The format is functional, cell-based, Homo sapiens. The following applies: Homo sapiens, BJ.
Series [9] can be described thus: inhibitors of firefly luciferase expression or activity, dose response, H4 neuroglioma cells, luminescence (AID 1990). The format is functional, cell-based.
Series [10] has as its target Peroxisome proliferator-activated receptor gamma/Nuclear receptor coactivator 3 (Homo sapiens, UniProt P37231). The series is classed as functional.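 Note: agonist potency for raising coactivator recruitment to the receptor.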
Series [11] in a line: cytotoxicity toward DRD oncogenic fibroblasts, dose response, cell-based, non-viral oncogenic, luminescence (AID 1934). The format is functional. The following applies: Homo sapiens.
Series [12] has as its target Peroxisome proliferator-activated receptor gamma/Nuclear receptor coactivator 1 (Homo sapiens, UniProt P37231). The format is functional.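 Note: agonist potency as compounds enhance coactivator SRC-1 recruitment to PPARgamma.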
The target of another series is Protein Wnt-3a (Mus musculus, UniProt P27467). The series is described as follows: Wnt3a-driven reporter signaling inhibition, dose response, selectivity assay for Gli-SUFU antagonist project, Wnt-LIGHT cells, luminescence (AID 651570).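 Note: Wnt-LIGHT reporter cells stimulated with conditioned medium from Wnt3a-producing cells.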 The series is classed as functional. The following applies: read-out: IC50_Mean.
Sequence of Protein Wnt-3a (P27467 whole entry): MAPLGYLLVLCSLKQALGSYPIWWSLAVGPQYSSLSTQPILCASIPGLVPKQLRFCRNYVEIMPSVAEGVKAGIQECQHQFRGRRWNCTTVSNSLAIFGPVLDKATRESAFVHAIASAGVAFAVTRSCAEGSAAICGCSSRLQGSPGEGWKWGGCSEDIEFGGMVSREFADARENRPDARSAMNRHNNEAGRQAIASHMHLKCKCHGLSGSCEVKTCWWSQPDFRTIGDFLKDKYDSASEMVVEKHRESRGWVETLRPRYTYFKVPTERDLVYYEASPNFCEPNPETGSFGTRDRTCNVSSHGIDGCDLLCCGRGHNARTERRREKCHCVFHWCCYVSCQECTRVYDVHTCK
Series [13] can be described thus: miR-122 activators in hepatoma reporter cells, dose response, cell-based, Huh7 psiCHECK-miR122, Renilla luciferase, cherry-picked (AID 651956).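 Note: huh7 hepatoma cells stably carrying a psiCHECK-2 miR-122 sensor plasmid; renilla luciferase signal reporting endogenous miR-122 activity after 48 h compound exposure.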 The format is functional.
In the next series the target is Genome polyprotein (dengue virus type 2, UniProt P29990). The series is described as follows: Dengue-2 NS5 methyltransferase inhibitors, primary screen, biochemical, confirmation dose response (AID 588689). The series is classed as functional.
Sequence of Genome polyprotein (P29990 2492-3391 limits assumed): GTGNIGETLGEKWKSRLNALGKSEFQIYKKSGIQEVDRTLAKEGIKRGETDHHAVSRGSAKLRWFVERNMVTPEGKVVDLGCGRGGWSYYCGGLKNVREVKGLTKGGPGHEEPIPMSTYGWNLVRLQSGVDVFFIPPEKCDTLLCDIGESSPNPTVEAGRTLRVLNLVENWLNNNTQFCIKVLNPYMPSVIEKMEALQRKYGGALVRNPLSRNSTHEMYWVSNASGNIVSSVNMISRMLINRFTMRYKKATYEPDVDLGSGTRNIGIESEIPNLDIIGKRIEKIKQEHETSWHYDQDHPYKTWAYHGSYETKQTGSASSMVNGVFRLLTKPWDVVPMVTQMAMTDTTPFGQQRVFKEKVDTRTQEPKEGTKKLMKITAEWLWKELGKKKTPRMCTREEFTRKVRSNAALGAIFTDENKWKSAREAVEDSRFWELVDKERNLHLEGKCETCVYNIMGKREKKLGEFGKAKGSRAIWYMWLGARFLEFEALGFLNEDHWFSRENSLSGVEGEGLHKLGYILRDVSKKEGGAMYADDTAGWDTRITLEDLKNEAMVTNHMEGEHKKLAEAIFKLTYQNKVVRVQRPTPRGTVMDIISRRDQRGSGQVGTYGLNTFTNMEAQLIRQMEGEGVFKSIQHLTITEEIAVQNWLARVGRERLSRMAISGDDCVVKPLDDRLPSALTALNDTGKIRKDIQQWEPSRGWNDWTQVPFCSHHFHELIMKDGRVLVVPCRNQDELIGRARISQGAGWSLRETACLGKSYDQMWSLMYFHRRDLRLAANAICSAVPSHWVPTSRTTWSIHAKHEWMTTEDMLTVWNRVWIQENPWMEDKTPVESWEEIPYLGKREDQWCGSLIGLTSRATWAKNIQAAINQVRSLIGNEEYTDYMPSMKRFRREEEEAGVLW
Another series relates to Vero. The series is described as follows: Vero cell cytotoxicity, cytotoxicity control for flavivirus capping enzyme inhibitors (AID 588742). The series is classed as functional. As to conditions: Chlorocebus sabaeus.

Calls of active or inactive are those of the source.

Sequence of Cytochrome P450 3A4 (P08684 whole entry): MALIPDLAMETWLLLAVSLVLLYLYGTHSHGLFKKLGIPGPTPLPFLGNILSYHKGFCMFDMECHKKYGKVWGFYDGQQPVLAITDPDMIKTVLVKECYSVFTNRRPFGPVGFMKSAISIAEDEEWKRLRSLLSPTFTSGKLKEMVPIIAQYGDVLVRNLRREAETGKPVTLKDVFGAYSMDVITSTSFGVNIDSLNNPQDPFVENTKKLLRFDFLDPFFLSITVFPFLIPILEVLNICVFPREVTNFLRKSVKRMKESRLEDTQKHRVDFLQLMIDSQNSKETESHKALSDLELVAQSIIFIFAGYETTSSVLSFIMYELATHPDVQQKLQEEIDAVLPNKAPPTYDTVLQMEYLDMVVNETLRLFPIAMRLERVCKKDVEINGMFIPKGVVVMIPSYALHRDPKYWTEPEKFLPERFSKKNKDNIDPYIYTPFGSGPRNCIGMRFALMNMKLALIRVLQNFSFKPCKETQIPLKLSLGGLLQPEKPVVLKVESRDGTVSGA
Sequence of Peroxisome proliferator-activated receptor gamma/Nuclear receptor coactivator 3 (P37231 whole entry): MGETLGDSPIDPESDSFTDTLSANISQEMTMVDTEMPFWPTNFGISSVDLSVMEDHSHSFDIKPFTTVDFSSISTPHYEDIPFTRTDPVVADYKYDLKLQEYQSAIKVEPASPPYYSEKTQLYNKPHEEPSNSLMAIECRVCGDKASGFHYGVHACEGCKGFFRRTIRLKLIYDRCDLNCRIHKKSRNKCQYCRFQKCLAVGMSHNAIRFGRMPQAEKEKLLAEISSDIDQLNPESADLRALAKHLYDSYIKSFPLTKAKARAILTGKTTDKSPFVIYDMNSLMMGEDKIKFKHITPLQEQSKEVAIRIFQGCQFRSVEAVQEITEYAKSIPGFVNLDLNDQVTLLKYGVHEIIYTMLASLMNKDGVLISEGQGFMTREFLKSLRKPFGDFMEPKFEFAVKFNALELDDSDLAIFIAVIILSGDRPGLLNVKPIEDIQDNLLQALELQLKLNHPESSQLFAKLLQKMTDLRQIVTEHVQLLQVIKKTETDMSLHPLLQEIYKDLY
Sequence of Peroxisome proliferator-activated receptor gamma/Nuclear receptor coactivator 3 (Q9Y6Q9 whole entry, further chain): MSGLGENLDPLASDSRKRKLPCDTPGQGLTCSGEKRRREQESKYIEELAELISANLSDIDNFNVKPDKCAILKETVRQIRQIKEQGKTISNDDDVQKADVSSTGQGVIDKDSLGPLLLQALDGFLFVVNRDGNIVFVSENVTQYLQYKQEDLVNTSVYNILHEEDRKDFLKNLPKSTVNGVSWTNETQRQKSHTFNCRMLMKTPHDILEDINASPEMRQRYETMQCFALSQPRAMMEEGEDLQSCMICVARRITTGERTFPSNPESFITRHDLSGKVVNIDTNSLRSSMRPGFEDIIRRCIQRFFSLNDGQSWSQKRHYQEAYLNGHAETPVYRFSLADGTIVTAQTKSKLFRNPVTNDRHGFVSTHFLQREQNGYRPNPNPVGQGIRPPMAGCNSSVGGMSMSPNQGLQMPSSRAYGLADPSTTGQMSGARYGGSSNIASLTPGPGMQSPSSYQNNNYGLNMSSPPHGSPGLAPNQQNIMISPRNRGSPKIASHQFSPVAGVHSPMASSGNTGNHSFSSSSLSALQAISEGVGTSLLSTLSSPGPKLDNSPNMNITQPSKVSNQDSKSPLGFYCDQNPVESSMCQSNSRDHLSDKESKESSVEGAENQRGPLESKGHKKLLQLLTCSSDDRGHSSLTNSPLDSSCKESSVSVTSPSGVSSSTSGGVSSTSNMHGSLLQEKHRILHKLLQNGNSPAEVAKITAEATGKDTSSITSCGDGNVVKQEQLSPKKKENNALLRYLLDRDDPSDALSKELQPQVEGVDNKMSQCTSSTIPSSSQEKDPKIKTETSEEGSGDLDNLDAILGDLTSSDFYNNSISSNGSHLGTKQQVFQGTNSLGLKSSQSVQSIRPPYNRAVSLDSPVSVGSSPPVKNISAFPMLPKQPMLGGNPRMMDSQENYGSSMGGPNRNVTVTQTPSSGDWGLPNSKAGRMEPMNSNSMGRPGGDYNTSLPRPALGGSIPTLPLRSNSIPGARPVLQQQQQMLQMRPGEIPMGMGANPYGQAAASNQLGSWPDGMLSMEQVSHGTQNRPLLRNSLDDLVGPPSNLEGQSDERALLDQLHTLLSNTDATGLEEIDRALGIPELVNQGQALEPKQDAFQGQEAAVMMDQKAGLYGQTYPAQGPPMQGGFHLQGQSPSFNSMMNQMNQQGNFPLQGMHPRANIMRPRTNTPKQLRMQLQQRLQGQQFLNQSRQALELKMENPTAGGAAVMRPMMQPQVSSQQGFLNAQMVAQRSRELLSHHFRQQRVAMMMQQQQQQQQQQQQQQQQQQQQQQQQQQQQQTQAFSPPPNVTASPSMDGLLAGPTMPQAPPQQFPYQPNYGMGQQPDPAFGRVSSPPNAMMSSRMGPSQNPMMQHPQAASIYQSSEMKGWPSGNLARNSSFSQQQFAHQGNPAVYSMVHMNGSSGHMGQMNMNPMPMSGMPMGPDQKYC

As for `CCC(C(=O)OCCN(CC)CC)c1ccccc1` (stereo unspecified), in series [1], the IC50 was 23.9 µM (inactive).

In the case of `FC(F)(F)c1nnc2c(Sc3ccc(Cl)cc3)nc3ccccc3n12`, the figures for the AC50 at Paired box protein Pax-8 and on Cytochrome P450 3A4 were 1.27 µM (active) and “inconclusive”, respectively. For the same molecule, the EC50 in series [2] was > 120 µM (not active); in the series with BJ [3], 5.54 µM (inconclusive); in the series with BJ [4], 3.28 µM (inconclusive); in series [5], 9.77 µM (active); in the series on BJ [6], 0.565 µM (active); in series [7], 21.7 µM (not active). The EC50 was 25.2 µM (active) in the series with BJ [8]; > 120 µM (not active) in series [9]; 32.3 µM (not active) in series [10]; 9.34 µM (inconclusive) in [11]; 24.3 µM (not active) in series [12].

Turning to `CC(C)(C)NC(=O)C(c1cccc2ccccc12)n1c(=O)c(-c2ccco2)nc2ccccc21` (stereo unspecified), in [1], the IC50 is 2.27 µM (active).

`CC[n+]1ccn(C)c1P(c1ccccc1)c1ccccc1`: on Protein Wnt-3a, the IC50 was 6.99 µM (active).

Take `Cc1cccc(C)c1NC(=O)C(c1ccccc1)n1c(=O)c(-c2ccco2)nc2ccccc21` (stereo unspecified): the IC50 in series [1] was 3.81 µM (active).

Turning to `O=C(N[C@@H]1C/C=C\C[C@@H](CC(=O)N(CCO)Cc2ccccc2)C(=O)N[C@@H](c2ccccc2)COC1=O)OCC1c2ccccc2-c2ccccc21`, at Protein Wnt-3a, the IC50 is 12.3 µM (active).

In the case of `CCS(=O)(=O)Nc1ccc2c(c1)C(=O)N(C)C[C@@H](OC)[C@H](C)CN(CC1CCCC1)[C@H](C)CO2`, the AC50 in [13] is 23.6 µM (active).

As for `CCCCCCCCn1c(=O)c(C(=O)OCC)c(O)c2ccccc21`, the IC50 at Genome polyprotein is 77.2 µM (active). The CC50 in the series on Vero is > 40 µM (active).
